Measured values taken from patent US20230023726A1, “PHARMACEUTICAL COMPOSITION COMPRISING PEPTIDE THAT INHIBITS INTERACTION OF P53 AND FOXO4” (SUPADELIXIR INC., priority 2019, published 2023).

What was measured:
Type in all cases: cell-based, human
[1] = system: interaction between p53 and FOXO4; test: in situ PLA (proximity ligation assay) of the physical binding between p53 and FOXO4 in H2O2-treated HaCaT cells; conditions: H2O2 200 μM, peptide 20 μM, 1 hour; for inhibition of the interaction between p53 and FOXO4 (PLA signals): in comparison with the control group
Description: After treating cells with the peptides of the present invention, the effects thereof on the physical binding between p53 and FOXO4 were evaluated through an in situ PLA (proximity ligation assay) method. HaCaT cells (human keratinocytes, CLS) were added at 4.5×10^4 cells per well, along with a DMEM containing 10% fetal bovine serum, to each well of a 24-well microplate and then cultured at 37° C. in a 5% CO2 incubator for 24 hours. H2O2 and the peptide solutions of Example 2 and H2O2 were added thereto so that the concentrations of H2O2 and each peptide in the medium were 200 μM and 20 μM respectively, followed by incubating for 1 hour under the same condition. As a control group, an untreated group (indicated by “control” in FIG. 1) and a group treated with H2O2 alone (indicated by “-” in FIG. 1) were used. The cells of each well were washed with PBS, fixed by treating with 2% formaldehyde for 15 minutes, and then treated with 0.1% TritonX-100 for 5 minutes to increase antibody permeability into the cells. Anti-p53 polyclonal antibody (Abcam, UK) and anti-FOXO4 polyclonal antibody (Santa Cruz, Calif., USA) were added thereto. After the PLA probe was added thereto using the in situ PLA kit (Sigma-Aldrich), hybridization, ligation, amplification and mounting steps were carried out according to the manufacturer's protocol. Each physical interaction between p53 and FOXO4 was quantified by measuring the luminescence signals (PLA signals) detected in each cell with a confocal laser microscope (Olympus fluoview FW1000; Olympus, Tokyo, Japan).

[2] = system: interaction between p53 and FOXO4; test: in situ PLA of p53-FOXO4 binding with ERK inhibitor (PD98059) and SHP2 inhibitor (NSC878777) in HaCaT cells; conditions: H2O2 200 μM, 1 hour, FIG. 2
Description: After treating cells with the peptide of the present invention (the peptide of SEQ ID NO: 3), H2O2, a ERK inhibitor (PD98059), and a SHP2 inhibitor (NSC878777), the effects thereof on the physical binding between p53 and FOXO4 were evaluated through an in situ PLA (proximity ligation assay) method. HaCaT cells (human keratinocytes, CLS) were added at 4.5×10^4 cells per well, along with a DMEM containing 10% fetal bovine serum, to each well of a 24-well microplate and then cultured at 37° C. in a 5% CO2 incubator for 24 hours. The cells were treated with H2O2 (200 μM) and the peptide of SEQ ID NO: 3 (20 μM); or PD98059 (10 μM) or NSC878777 (10 μM) was additionally treated to the cells treated with H2O2 (200 μM) and the peptide of SEQ ID NO: 3 (20 μM), followed by incubating for 1 hour under the same condition. As a control group, an untreated group (indicated by “control” in FIG. 2) and a group treated with H2O2 alone were used. The cells of each well were washed with PBS, fixed by treating with 2% formaldehyde for 15 minutes, and then treated with 0.1% TritonX-100 for 5 minutes to increase antibody permeability into the cells. […] Each physical interaction between p53 and FOXO4 was quantified by measuring the luminescence signals (PLA signals) detected in each cell with a confocal laser microscope (Olympus fluoview FW1000; Olympus, Tokyo, Japan).

[3] = system: senescent ARPE-19 cells (retinal pigment epithelial cells); test: apoptosis of H2O2-induced senescent cells, X-Gal (Senescence β-Galactosidase) staining, number of remaining senescent cells; conditions: ARPE-19, H2O2 25 μM 24 hours, then peptide 0.2 μM, 2 μM and 20 μM 24 hours; versus H2O2 alone ("-" group); FIGS. 3 and 4
Description: In order to evaluate the activity on the apoptosis of senescent cells by the treatment with the peptide of the present invention (the peptide of SEQ ID NO: 3) for 24 hours after inducing senescence by treating cells with H2O2, the X-Gal staining was carried out to measure the number of the remaining senescent cells. ARPE-19 cells (retinal pigment epithelial cells) were added at the density of 80% per well, along with a DMEM containing 10% fetal bovine serum, to each well of a 12-well microplate and then cultured at 37° C. in a 5% CO2 incubator for 24 hours. H2O2 was added thereto so that the concentration thereof in the medium was 25 μM, followed by incubating for 24 hours under the same condition. Thereafter, the cells in each well were washed with PBS and the peptide solution of Example 2 was added thereto so that the concentration of the peptide of SEQ ID NO: 3 was 0.2 μM, 2 μM, and 20 μM respectively, followed by incubating for 24 hours under the same condition. As a control group, an untreated group (indicated as “control” in FIGS. 3 and 4) and a group treated with H2O2 alone (indicated by “-” in FIGS. 3 and 4) were used. […] The bluish green color development detected in the senescence-induced cells was measured with a phase-contrast microscope (Olympus, Tokyo, Japan), and each number of senescent cells was quantified.

Leu-Ala-Asp (LAD) [Pep 4]
inhibition of the interaction between p53 and FOXO4 (PLA signals) ([1]; FIG. 1): remarkably inhibited
inhibition of the interaction between p53 and FOXO4 (PLA signals) ([1]; FIG. 1, listed as SEQ ID NO: 4): particularly excellent activity

Leu-Cys-Asp (LCD) [Pep 13]
inhibition of the interaction between p53 and FOXO4 (PLA signals) ([1]; FIG. 1): remarkably inhibited
inhibition of the interaction between p53 and FOXO4 (PLA signals) ([1]; FIG. 1, listed as SEQ ID NO: 13): particularly excellent activity

Leu-Gln-Asp (LQD) [Pep 5]
inhibition of the interaction between p53 and FOXO4 (PLA signals) ([1]; FIG. 1): remarkably inhibited
inhibition of the interaction between p53 and FOXO4 (PLA signals) ([1]; FIG. 1, listed as SEQ ID NO: 5): particularly excellent activity

Leu-Glu-Asp (LED) [Pep 1]
extent of inhibition of the interaction between p53 and FOXO4 in comparison with the control group (PLA signals) ([1]; FIG. 1): two or more times
inhibition of the interaction between p53 and FOXO4 (PLA signals) ([1]; FIG. 1): remarkably inhibited
inhibition of the interaction between p53 and FOXO4 (PLA signals) ([1]; FIG. 1, listed as SEQ ID NO: 1): particularly excellent activity

Leu-Gly-Asp (LGD) [Pep 3]
dependence of the peptide's inhibitory signal on ERK and SHP2 ([2]; peptide 20 μM plus PD98059 10 μM or NSC878777 10 μM): dependent on ERK and SHP2 activation
inhibition of the interaction between p53 and FOXO4 (PLA signals) ([2]; peptide 20 μM): significantly inhibited
induction of apoptosis of senescent cells (number of remaining senescent cells) [3]: significantly induced the apoptosis of senescent cells
inhibition of the interaction between p53 and FOXO4 (PLA signals) ([1]; FIG. 1): remarkably inhibited
inhibition of the interaction between p53 and FOXO4 (PLA signals) ([1]; FIG. 1, listed as SEQ ID NO: 3): particularly excellent activity

Leu-His-Asp (LHD) [Pep 14]
extent of inhibition of the interaction between p53 and FOXO4 in comparison with the control group (PLA signals) ([1]; FIG. 1): two or more times
inhibition of the interaction between p53 and FOXO4 (PLA signals) ([1]; FIG. 1): remarkably inhibited
inhibition of the interaction between p53 and FOXO4 (PLA signals) ([1]; FIG. 1, listed as SEQ ID NO: 14): particularly excellent activity

Leu-Ile-Asp (LID) [Pep 15]
extent of inhibition of the interaction between p53 and FOXO4 in comparison with the control group (PLA signals) ([1]; FIG. 1): two or more times
inhibition of the interaction between p53 and FOXO4 (PLA signals) ([1]; FIG. 1): remarkably inhibited
inhibition of the interaction between p53 and FOXO4 (PLA signals) ([1]; FIG. 1, listed as SEQ ID NO: 15): particularly excellent activity

Leu-Leu-Asp (LLD) [Pep 8]
inhibition of the interaction between p53 and FOXO4 (PLA signals) ([1]; FIG. 1): remarkably inhibited
inhibition of the interaction between p53 and FOXO4 (PLA signals) ([1]; FIG. 1, listed as SEQ ID NO: 8): particularly excellent activity

Leu-Lys-Asp (LKD) [Pep 7]
inhibition of the interaction between p53 and FOXO4 (PLA signals) ([1]; FIG. 1): remarkably inhibited
inhibition of the interaction between p53 and FOXO4 (PLA signals) ([1]; FIG. 1, listed as SEQ ID NO: 7): particularly excellent activity

Leu-Phe-Asp (LFD) [Pep 11]
extent of inhibition of the interaction between p53 and FOXO4 in comparison with the control group (PLA signals) ([1]; FIG. 1): two or more times
inhibition of the interaction between p53 and FOXO4 (PLA signals) ([1]; FIG. 1): remarkably inhibited
inhibition of the interaction between p53 and FOXO4 (PLA signals) ([1]; FIG. 1, listed as SEQ ID NO: 11): particularly excellent activity

Leu-Pro-Asp (LPD) [Pep 17]
extent of inhibition of the interaction between p53 and FOXO4 in comparison with the control group (PLA signals) ([1]; FIG. 1): two or more times
inhibition of the interaction between p53 and FOXO4 (PLA signals) ([1]; FIG. 1): remarkably inhibited
inhibition of the interaction between p53 and FOXO4 (PLA signals) ([1]; FIG. 1, listed as SEQ ID NO: 17): particularly excellent activity

Leu-Thr-Asp (LTD) [Pep 18]
extent of inhibition of the interaction between p53 and FOXO4 in comparison with the control group (PLA signals) ([1]; FIG. 1): two or more times
inhibition of the interaction between p53 and FOXO4 (PLA signals) ([1]; FIG. 1): remarkably inhibited
inhibition of the interaction between p53 and FOXO4 (PLA signals) ([1]; FIG. 1, listed as SEQ ID NO: 18): particularly excellent activity

Leu-Trp-Asp (LWD) [Pep 19]
inhibition of the interaction between p53 and FOXO4 (PLA signals) ([1]; FIG. 1): remarkably inhibited
inhibition of the interaction between p53 and FOXO4 (PLA signals) ([1]; FIG. 1, listed as SEQ ID NO: 19): particularly excellent activity

Leu-Tyr-Asp (LYD) [Pep 9]
extent of inhibition of the interaction between p53 and FOXO4 in comparison with the control group (PLA signals) ([1]; FIG. 1): two or more times
inhibition of the interaction between p53 and FOXO4 (PLA signals) ([1]; FIG. 1): remarkably inhibited
inhibition of the interaction between p53 and FOXO4 (PLA signals) ([1]; FIG. 1, listed as SEQ ID NO: 9): particularly excellent activity

Leu-Val-Asp (LVD) [Pep 20]
extent of inhibition of the interaction between p53 and FOXO4 in comparison with the control group (PLA signals) ([1]; FIG. 1): two or more times
inhibition of the interaction between p53 and FOXO4 (PLA signals) ([1]; FIG. 1): remarkably inhibited
inhibition of the interaction between p53 and FOXO4 (PLA signals) ([1]; FIG. 1, listed as SEQ ID NO: 20): particularly excellent activity
